# According to patent publication US5047520A, “2'-alkylidenepyrimidine nucleoside derivatives, process for production thereof, and uses thereof” (Yamasa Shoyu Kabushiki Kaisha, priority 1987, dated 1991):
# Legend:
# [1] = test system: HSV type 1 (HSV-1) strain VR-3; test: anti-HSV activity: inhibition of cytopathic effect (CPE), HSV-1; assay type: cell-based; details: Human alphaherpesvirus 1; HSV-1 strain VR-3, 100-320 TCID50; human embryonic lung cells; 37° C., 2 to 3 days; read-out: MIC HSV-1 (minimum concentration at which the CPE is inhibited at least by 50%)
# Experimental: (§1) A. Human embryonic lung cells are subcultivated in Eagle's MEM supplemented with 10% semi-fetal calf serum.
# (§2) B. The cells thus subcultivated are used as a parent culture. A cell suspension obtained from the parent culture by dividing it at 1:2 split is seeded into 96 microwells in an amount of 150 μl/well and incubated in a CO2 -incubator at 37° C. for 4 to 5 days.
# (§3) C. The culture field is discarded, and 100- to 320-50% tissue culture infective doses (100-320 TCID50) of HSV type 1 (HSV-1) strain VR-3 or HSV type 2 (HSV-2) strain MS is inoculated. After incubation at 37° C. for 1 hour, the virus fluid is discarded, 150 μl of Eagle's MEM supplemented with 2.5% semi-fetal calf serum and containing an appropriate amount of each test compound is added, and cultivation is carried out at 37° C. Each of the test compounds is usually diluted in the range of from 100 to 1 μg/ml by serial 0.5 log10 decrements.
# (§4) D. After cultivation for 2 to 3 days, the degree of the cytopathic effect (CPE) caused by the viral infection in each of the wells is observed microscopically. At the time when the control cultures, in which the test compound is absent, have shown complete CPE by the viral infection, the degree of CPE in each well is rated from 0 to 4.
# (§5) E. The minimum concentration at which the CPE is inhibited at least by 50% (indicated by the CPE score not exceeding 2) is defined as the minimum inhibitory concentration (MIC) of the test compound.
# [2] = test system: HSV type 2 (HSV-2) strain MS; test: anti-HSV activity: inhibition of cytopathic effect (CPE), HSV-2; assay type: cell-based; details: Human alphaherpesvirus 2, 100-320 TCID50, human embryonic lung cells, 37° C., 2 to 3 days, read-out: MIC HSV-2 (minimum concentration at which the CPE is inhibited at least by 50%)
# Experimental: as §1, §2, §3, §4, §5
# CMV strain AD 169 = test: anti-CMV activity: inhibition of plaque formation; assay type: cell-based, cytomegalovirus (CMV); details: Human betaherpesvirus 5; CMV strain AD 169, about 50 plaque forming units; human embryonic lung cells; 37° C., 4 to 6 days; read-out: MIC CMV (minimum concentration at which the plaque formation is inhibited at least by 50%)
# Experimental: as §1
# B. The cells thus subcultivated are used as a parent culture. A cell suspension obtained from the parent culture by dividing it at 1:2 split is seeded into 24 semi-microwells in an amount of 150 μl/well and incubated in a CO2 -incubator at 37° C. for 4 to 5 days.
# C. The culture fluid is discarded, and about 50 plaque forming units of CMV strain AD 169 is inoculated. After incubation at 37° C. for 1 hour, 400 μl of Eagle's MEM supplemented with 2.5% semi-fetal calf serum and containing an appropriate amount of each test compound is added, and cultivation is carried out at 37° C. Each of the test compounds is usually diluted in the range of from 100 to 1 μg/ml by serial 0.5 log10 decrements.
# D. After cultivation for 4 to 6 days, infected cells are stained with a 0.5% Crystal Violet solution, and the number of plaques formed is counted under the microscope.
# E. The minimum concentration at which the plaque formation is inhibited at least by 50%, based on the number of plaques formed in the control cultures in which the test compound is absent, is defined as the minimum inhibitory concentration (MIC) of the test compound.
Compound,MIC [1],MIC [2],MIC (CMV strain AD 169)
"C=C1[C@H](n2ccc(N)nc2=O)O[C@H](CO)[C@H]1O [NH2 H H H, 2'-methylidene-2'-deoxycytidine]",1 µg/mL,1 µg/mL,0.1 µg/mL
"C=C1[C@H](n2cc(Br)c(=O)[nH]c2=O)O[C@H](CO)[C@H]1O [OH Br H H, 2'-methylidene-2'-deoxy-5-bromouridine]",3.2 µg/mL,3.2 µg/mL,–
"CC=C1[C@H](n2cc(C)c(=O)[nH]c2=O)O[C@H](CO)[C@H]1O [OH CH3 CH3 H, 2'-ethylidenethymidine]",10 µg/mL,32 µg/mL,–
"C=C1[C@H](n2cc(C)c(=O)[nH]c2=O)O[C@H](CO)[C@H]1O [OH CH3 H H, 2'-methylidenethymidine]",1 µg/mL,1 µg/mL,5.6 µg/mL
"C=C1[C@H](n2cc(Cl)c(=O)[nH]c2=O)O[C@H](CO)[C@H]1O [OH Cl H H, 2'-methylidene-2'-deoxy-5-chlorouridine]",10 µg/mL,10 µg/mL,–
"C=C1[C@H](n2cc(I)c(=O)[nH]c2=O)O[C@H](CO)[C@H]1O [OH I H H, 2'-methylidene-2'-deoxy-5-iodouridine]",1 µg/mL,1 µg/mL,–
